Laboratory results reported in ChEMBL document CHEMBL1159372, “Two flavone C-glycosides from the style of Zea mays with glycation inhibitory activity” (J Nat Prod, 2003).

Experiment: Inhibition of advanced glycation end product formation at 1 mM after 7 days by fluorescence assay
Assay type: physicochemical
Conditions: 168 h, 1000 µM

inhibition (INH) | Compound
53% | COc1cc(-c2cc(=O)c3c(O)c([C@H]4C[C@@H](O)[C@H](O)[C@H](C)O4)c(O[C@@H]4O[C@H](CO)[C@@H](O)[C@H](O)[C@H]4O)cc3o2)ccc1O
64.2% | COc1cc(-c2cc(=O)c3c(O)c([C@H]4C[C@@H](O)[C@H](O)[C@H](C)O4)c(O)cc3o2)ccc1O

Compound | inhibition (INH)
N=C(N)NN [PIMAGEDINE] | 60.5%
